Experimental data published in US11629139B2 (priority 2017, dated 2023).
In brackets after ≈: the same amount, converted by molar mass. Like-named read-outs stand apart in the source and are kept apart here.

Tests used:
[1] = plasma
[2] = pH 7.4
[3] = mouse, in vivo; for AUClast / T1/2 / Tmax: po, 50 mg/kg
[4] = human, microsomes
[5] = for MLM T½ / MLM, T½ (min) (ritonavir 3 μM) / m-μsome T1/2 (with 3 μM of Ritonavir): mouse, microsomes
[6] = tested on: Lassa fever virus (LFV) GP; details: cited from earlier work
VSV G = details: cited from earlier work
[7] = tested on: vesicular stomatitis virus particles (VSV) pseudotyped with EboV Zaire GP; details: cited from earlier work
[8] = tested on: vesicular stomatitis virus particles (VSV) pseudotyped with EboV Zaire GP; assay: microbe, parasite or virus in culture; format: cell-based; details: Vesicular stomatitis virus
in vivo = details: mouse, po
in vitro [9] = details: mouse, plasma
Ebola virus (Mayinga) = assay: microbe, parasite or virus in culture; format: cell-based; details: Zaire ebolavirus, HeLa, read-out: EBOV Maiynga) (Hela) EC50
EBOV Kikwit = assay: microbe, parasite or virus in culture; format: cell-based, Ebola virus; details: Zaire ebolavirus, HeLa, read-out: EBOV Kikwit(Hela) EC50
EBOV Makona = assay: microbe, parasite or virus in culture; format: cell-based, Ebola virus; details: Zaire ebolavirus, HeLa, read-out: EBOV Makona (Hela) EC50
EBOV G-A82 = assay: microbe, parasite or virus in culture; format: cell-based, Ebola virus; details: Zaire ebolavirus, HeLa, read-out: EBOV G-A82 (Hela) EC50
physchem = details: pH 7.4, aqueous buffer, kinetic from dmso stock
in vitro [10] = details: mouse, microsomes, pH 7.4, MLM T½ (min)

[2H]C([2H])(c1cc(Cl)ccc1N)N1CCN(C(=O)CNC(=O)C2CC23CCC(F)(F)CC3)CC1 (single isomer, unassigned; (-)) [(−)-1413]
Mouse PPB (% bound) [1]: 87.9% | Kinetic solubility [2]: 78 µM | C@12 hr [3]: 2.0 µM | Cl_obs [3]: 15.5 mL/min/kg | AUClast [3]: 120.9 µM·h | T1/2 [3]: 3.2 h | Tmax [3]: 1.7 h | HLM T½ [4]: 0.267 h | Increase of stability in mouse liver microsomes by ritonavir [5]: 10- to 30 fold | MLM T½ [5]: 3 min | MLM, T½ (min) (ritonavir 3 μM) [5]: 91 min

[2H]C([2H])(c1cc(Cl)ccc1NCc1ccc(S(C)(=O)=O)cc1)N1CCN(C(=O)CNC(=O)C2CC23CCC(F)(F)CC3)CC1 (single isomer, unassigned; (-)) [(−)-1503]
Mouse PPB (% bound) [1]: 99.8% | Kinetic solubility [2]: 4 µM | C@12 hr [3]: 5.7 µM | Cl_obs [3]: 12.5 mL/min/kg | Plasma concentration after 12 hours relative to in vitro IC50 against rVSV EBOV infection in 50% human serum [3]: 50 fold | AUClast [3]: 107.5 µM·h | T1/2 [3]: 1.7 h | Tmax [3]: 7.3 h | HLM T½ [4]: 0.017 h | MLM T½ [5]: 2 min | MLM, T½ (min) (ritonavir 3 μM) [5]: 87 min

O=C(CC12CC3CC(CC(C3)C1)C2)NCC(=O)N1CCN(Cc2ccccc2)CC1 [Compound 3.0]
Infection of Vero cells by VSV pseudotyped with Lassa fever virus (LFV) GP [6]: not | Infection of Vero cells by VSV particles with VSV G (VSV G): not | Infection of Vero cells by VSV pseudotyped with EboV Zaire GP [7]: inhibits infection

COC(=O)c1ccc(COc2ccccc2CN2CCN(C(=O)CNC(=O)CC34CC5CC(CC(C5)C3)C4)CC2)cc1 [Compound 3.47, reference compound]
Concentration required to reduce cell viability by 50% (cell viability): exceeded 10 μM | Potency against EboV GP-dependent infection [7]: increased potency

CS(=O)(=O)c1ccc(COc2ccc(Cl)cc2CN2CCN(C(=O)CNC(=O)CC3CCC(F)(F)CC3)CC2)cc1 [Compound 1458]
Mouse plasma stability (% at 4 hours): 30% | IC50 [8]: 9 nM | MLM, T½ (min) (ritonavir 3 μM) ([5]; pH 7.4): >120 min

CS(=O)(=O)c1ccc(COc2ccc(Cl)cc2CN2CCN(C(=O)CNC(=O)C3CC34CCC(F)(F)CC4)CC2)cc1 (centres unmarked) [Compound 1476]
AUC (in vivo): 314 µM·h | Cmax (in vivo): 23 µM | half-life (in vivo): 6.1 h | fraction unbound (in vitro [9]; m-plasma protein binding): 0.013 | EC50 (Ebola virus (Mayinga)): 420 nM | EC50 (EBOV Kikwit): 210 nM | C@12 hr [3]: 14 µM | EC50 (EBOV Makona): 140 nM | m-μsome T1/2 (with 3 μM of Ritonavir) ([5]; pH 7.4): 2.83 h | EC50 (EBOV G-A82): < 80 nM

CS(=O)(=O)c1ccc(CNc2ccc(Cl)cc2CN2CCN(C(=O)CNC(=O)CC3CCC(F)(F)CC3)CC2)cc1 [Compound 1477]
Concentration required to reduce cell viability by 50% (cell viability): exceeded 10 μM | fraction unbound (in vitro [9]; m-plasma protein binding): 0.001 | EC50 (Ebola virus (Mayinga)): 33 nM | EC50 (EBOV Kikwit): 12 nM | EC50 (EBOV Makona): 52 nM | m-μsome T1/2 (with 3 μM of Ritonavir) ([5]; pH 7.4): 1.5 h

CS(=O)(=O)c1ccc(CNc2ccc(Cl)cc2CN2CCN(C(=O)CNC(=O)C3CC34CCC(F)(F)CC4)CC2)cc1 (centres unmarked) [Compound 1478]
fraction unbound (in vitro [9]; m-plasma protein binding): 0.001 | EC50 (Ebola virus (Mayinga)): 35 nM | EC50 (EBOV Kikwit): 9 nM | EC50 (EBOV Makona): 17 nM | m-μsome T1/2 (with 3 μM of Ritonavir) ([5]; pH 7.4): 2.13 h

O=C(CC12CC3CC(CC(C3)C1)C2)NCC(=O)N1CCN(Cc2ccccc2OCc2ccc(-c3ncco3)cc2)CC1 [Compound 1803, 2-((3r,5r,7r)-Adamantan-1-yl)-N-(2-(4-(2-((4-(oxazol-2-yl)benzyl)oxy)benzyl)piperazin-1-yl)-2-oxoethyl)acetamide]
Mouse plasma stability (% at 4 hours): 37% | fraction unbound (in vitro [9]; Mouse PPB (% bound)): 0.003 | solubility kinetic (physchem): 5 µM (≈ 2.91 µg/mL) | half-life (in vitro [10]): 1 min | IC50 [8]: 270 nM
